Key:
PrxII knocked down HAECs = assay: Intracellular hydrogen peroxide (DCF fluorescence), PrxII knocked down HAECs; type: cell-based, human
Method: First, the ability of GT to eliminate intracellular hydrogen peroxide in PrxII knocked down HASMCs and HAECs was tested. The cellular hydrogen peroxide production was monitored using an oxidant-sensitive fluorescence dye (2′,7′-dihydro-chlorofluorescein diacetate, H2DCF-DA).

NADPH oxidase (NOX) = assay: NADPH oxidase activity assay (whole cell superoxide production); type: cell-based, human; settings: HASMCs with PDGF-B and HAECs with VEGF-A; until concentrations increased up to 500 nM
Method: Whole cell superoxide production was measured using an enhanced luminescence system (Diogenes, National Diagnostics). For the assay, the serum-starved cells were pre-incubated with a 100 μl Diogene reagent at 37° C. for 5 minutes. After being stimulated by the indicated growth factor, chemiluminescence was detected every second for 10 minutes with a TD-20/20 Luminometer (Turner Biosystems).
When HASMCs and HAECs were stimulated with PDGF-B and VEGF-A, respectively, the NOX activity increased approximately twofold. […] Thus, it was seen that these ETP compounds function as hydrogen peroxide reductase capable of replacing PrxII in both vascular cells, but the mechanism was not the inhibition of hydrogen peroxide producer NOX.

[1] = tested on: yeast thioredoxin (Trx) / yeast thioredoxin reductase (TR) system; assay: Peroxidase activity assay (hydrogen peroxide reduction), Trx/TR system; type: biochemical; settings: 25 μM ETP compound, 30° C., NADPH oxidation at 340 nm
Method: The peroxidase activity assay for the epidithiodioxopiperazine derivatives according to the present invention (hereinafter, referred to as ETP compounds) was performed according to known methods [Korean Patent No. 10-0953326]. A standard peroxidase reaction for spectrophotometric assay was carried out using a 200 μl reaction mixture of 1 mM EDTA-containing 50 mM Hepes-NaOH buffer solution (pH 7.0) including 250 μM NADPH, 3 μM yeast thioredoxin (Trx), 1.5 μM yeast thioredoxin reductase (TR), 25 μM ETP compound and […] of hydrogen peroxide. For the comparison with a glutathione (GSH)-dependent peroxidase reaction, GSH (1 mM) and yeast glutathione reductase (GSH reductase; GR) (1 Unit) were added instead of yeast Trx and TR. Each reaction was initiated by adding hydrogen peroxide, and the NADPH oxidation was monitored for 12 minutes at 30° C. according to absorbance decrease at 340 nm using an Agilent UV8453 spectrophotometer (Hewlett Packard, USA). The initial reaction rate was calculated using the linear portion of the curve and expressed as the amount of NADPH oxidized per minute.
The chemical feature of the epidithiodioxopiperazine compound of the present invention or its derivatives is the intramolecular disulfide bridge present in the epidithiodioxopiperazine ring moiety. Cellular peroxidase reduces hydrogen peroxide utilizing the electrons derived from NADPH via two electron-transfer routes, that is, Trx/TR or GSH/GR, therefore, spectrophotometric assay was performed for the hydrogen peroxide-reducing activity in the presence of each system, and the results are shown in FIGS. 1 to 5.

[2] = tested on: balloon-injured rat carotid artery; assay: Balloon-injury model of rat carotid artery; type: in vivo
Method: Animal experiments were performed in compliance with the guidelines of Institutional Animal Care and Use Committee (IACUC) of the Ewha Womans University. Balloon injury was created using an infiltrated 2 F Fogarty balloon catheter in the left common carotid artery as follows: after the ten-week-old male Sprague-Dawley rats were anaesthetized by isoflurane gas (N2O:O2/70%:30%) inhalation, the left external carotid artery was exposed, and its branches were electrocoagulated. A catheter was pushed 1 cm in through the transverse arteriotomy of the external carotid artery, and the endothelial denudation was achieved by three passes along the common carotid artery. After the catheter was removed, the punched area was sealed and the clapped common carotid artery was opened for resuming the blood flow. Unless otherwise stated, the rats were recovered in a cage for 10 days, and subjected to histological and immunological analyses.
Rats were anesthetized, and the common carotid artery was excised after transcardiac perfusion-fixation with a heparinized saline solution containing 3.7% formaldehyde. The vessels were paraffin embedded and sectioned using a rotary microtome (Leica RM2255). Two serial tissue sections (4 μm in thickness) were obtained from the middle area of common carotid arteries, and stained with haematoxylin and eosin (HE). The luminal, internal elastic laminal, and external elastic laminal areas were measured using NIH Image v1.62. The intimal and medial areas were determined by subtracting the luminal area from the internal elastic area and subtracting the internal elastic area from the external elastic area. The values from the two serial sections for each rat were averaged for analysis.
For the in vivo injection of siRNA, a siRNA mixture specific to rat PrxII (200 nM) was premixed with a siPORT™ NeoFX™ reagent according to the instructions of the manufacturer (Ambion). Immediately after the balloon injury, the siRNA-injected mixture (200 μL) was injected through a catheter after briefly washed with Opti-MEM. After the incubation for 15 minutes, the blood flow was resumed. A siGLO-Red (Dharmacon), which is fluorescent dye-conjugated control siRNA, was used for optimizing in vivo injection efficiency. Similarly, the ETP compound (200 nM in DMSO) was injected through a catheter and incubated for 30 minutes.
Immunohistochemistry for the overoxidized 2-Cys Prxs was performed on the paraffin sections using an anti-Prx-SO2/3 antibody (1:1000 dilution). Briefly, the sections were de-waxed in xylene and rehydrated in ethanol, and subsequently the antigen retrieval was performed by boiling in a citric buffer solution (pH 6.0). After that, the sections were incubated with a primary antibody for 48 hours at 4° C. After washing three times with a phosphatebuffered saline solution, the sections were incubated with a peroxidase-conjugated secondary antibody and stained with a 3′,3′-diaminobenzidine (DAB) substrate solution. For negative staining, the Prx-502/3 antibody was blocked with the corresponding antigenic peptide (DFTFVC(SO2/3)PTEI). For indirect immunofluorescence staining, the paraffin sections were blocked with 5% normal rabbit serum (Vector Laboratories) in PBST (a PBS solution of 0.3% Triton X-100) for 1 hour at room temperature. The sections were then incubated overnight at 4° C. with the […] against rat smooth muscle α-actin (1:300 dilution) and rat CD31 (PECAM-1, 1:200 dilution). The nuclei were labeled with DAPI. After several PBST washes, the samples were incubated for 2 hours at room temperature with Alexa Fluor 568-conjugated donkey anti-mouse and Alexa Fluor 488-conjugated donkey anti-rabbit IgG antibodies. The fluorescence images were recorded on three random fields per tissue section at a screen magnification of 100× using a LSM 510 Meta confocal microscope equipped with argon and helium-neon lasers.
The paraffin sections were incubated for 10 minutes in PBS containing 0.1% Triton X-100. […]

CN1C(=O)[C@]23CC4=CC=C[C@H](O)[C@H]4N2C(=O)[C@@]1(CO)SS3 [gliotoxin]
basal level of intracellular hydrogen peroxide enhanced by PrxII knockdown (PrxII knocked down HAECs): completely eliminated
NOX activity (NADPH oxidase (NOX)): did not inhibit
hydrogen peroxide-reducing activity in the presence of a Trx/TR system [1]: 3.72 ± 0.53 nmol/min
endothelial repair / reendothelialization (CD31 immunofluorescence) ([2]; local administration after balloon injury): endothelium monolayer in contact with lumen was formed
intimal hyperplasia (ratio of intima versus media, HE staining) ([2]; local administration to the lumen through catheter, 30 minutes, ETP derivatives 200 nM, 10 days recovery): notably suppressed
cell death by TUNEL staining ([2]; nanomolar range, local administration): did not induce cell death
luminal surface endothelial cells by scanning electron microscopy ([2]; rat, in vivo): spread and formed a uniform layer with tight junction
overoxidation of 2-Cys-Prx (Prx-SO2/3 immunohistochemistry) versus control group ([2]; rat, in vivo): no significant differences
